Patent US7550497B2, “Phosphoramide derivatives” (Palau Pharma, S.A., priority 2002, dated 2009)

What was measured:
[1] = test system: carrageenan-induced paw edema; test: Rat carrageenan-induced paw edema assay; type: in vivo; conditions: male Sprague Dawley rats, 3 mg/kg i.v., 10 min before carrageenan, paw volume 1-4 h
Method: Test 1.—Rat Carrageenan-Induced Paw Edema Assay
Male Sprague Dawley rats (150-175 g) are used. The animals are fasted during 18 hours prior to the experiment and kept with water ad libitum, and are randomly distributed into the different groups of treatment. Inflammation is induced by injecting 0.1 mL of 1% λ-carrageenan solution (Sigma) to the animals' right hindpaw, and the inflammatory response (increase in paw volume) is measured with a plethysmometer (UGO BASILE). Paw volumes are measured just before the administration of test compounds and at 1, 2, 3 and 4 hours after the injection of carrageenan. The compounds are administered through the tail vein, dissolved in DMSO and saline (1 mL/Kg), 10 minutes before the injection of carrageenan. At the same time, 5 mL of water are administered by the oral route in order to facilitate hydration and subsequent inflammatory reaction. The percentages of inhibition of the different treatments tested are calculated by comparing the area under the curve obtained for the treated animals versus the one obtained for the control group. Said areas are obtained by integration from a graphical representation of paw volume versus time.
The results obtained with representative compounds of the present invention are shown in the following table, where the % of inhibition of inflammation at a dose of 3 mg/kg i.v. of test compound are reported.

[2] = test system: carrageenan-induced hyperalgesia; test: Rat carrageenan-induced hyperalgesia test; type: in vivo; conditions: male Sprague Dawley rats, 3 mg/Kg intravenous, especially at 120 min after administration
Method: Test 3.—Rat Carrageenan-Induced Hyperalgesia Test
Male Sprague Dawley rats, randomly distributed into the different groups of treatment, are used. Inflammation is induced by injection of a carrageenan suspension (0.75 mg per paw in 0.05 mL of saline) into the animals' right hind foot pad. One hour 45 min later the test compounds are administered by intravenous route. Two hours after carrageenan injection, hyperalgesia is induced at different times in both hindpaws by using a heat source. At each time, the time of latency till the withdrawal of the paw from the heat source is determined for the control group (vehicle) and the treatment groups, and the result is expressed as the increase of the latency time of the inflammed paw of the treated group versus the control group.

Compound	% inhibition of inflammation (paw volume AUC vs control) [1] [%]	analgesic activity (increase of latency time of the inflamed paw vs control) [2]
CCOP(=O)([O-])NS(=O)(=O)c1ccc(-n2cnc(Cl)c2-c2ccc(OC)c(F)c2)cc1.[Na+] [Example 4, Ethyl N-[4-[4-chloro-5-(3-fluoro-4-methoxyphenyl)imidazol-1-*yl]phenylsulfonyl]phosphoramidate Sodium Salt]	23.3	
COc1ccc(-c2c(Cl)ncn2-c2ccc(S(=O)(=O)NP(=O)(O)O)cc2)cc1F [Example 6, N-[4-[4-Chloro-5-(3-fluoro-4-methoxyphenyl)imidazol-1-yl]phenylsulfonyl]phosphoramidic Acid]	34.8	significant analgesic activity
Diethyl N-[4-[4-chloro-5-(3-fluoro methoxyphenyl)imidazol-1-yl]phenylsulfonyl]phosphoramidate [Example 1]	20.7	
